Assays:
Test in all cases: KINOMEscan competition binding
Conditions in all cases: compound 10.0 µM
[1] = system: ABL1 (human), P00519 [E255K]
CDK4 CCND3 (human) = CDK4 CCND3 (human) (UniProt P11802+P30281)
CDKL1 (human) = CDKL1 (human) (UniProt Q00532)
CSNK1A1 (human) = CSNK1A1 (human) (UniProt P48729)
DSTYK (human) = DSTYK (human) (UniProt Q6XUX3)
EGFR (human) = EGFR (human) (UniProt P00533)
EPHB6 (human) = EPHB6 (human) (UniProt O15197)
ERBB3 (human) = ERBB3 (human) (UniProt P21860)
ERN1 (human) = ERN1 (human) (UniProt O75460)
GRK1 (human) = GRK1 (human) (UniProt Q15835)
GRK4 (human) = GRK4 (human) (UniProt P32298)
HIPK2 (human) = HIPK2 (human) (UniProt Q9H2X6)
HIPK3 (human) = HIPK3 (human) (UniProt Q9H422)
HIPK4 (human) = HIPK4 (human) (UniProt Q8NE63)
HUNK (human) = HUNK (human) (UniProt P57058)
ICK (human) = ICK (human) (UniProt Q9UPZ9)
IRAK1 (human) = IRAK1 (human) (UniProt P51617)
LRRK2 (human) = LRRK2 (human) (UniProt Q5S007)
MAP3K1 (human) = MAP3K1 (human) (UniProt Q13233)
MAP3K13 (human) = MAP3K13 (human) (UniProt O43283)
MAP3K2 (human) = MAP3K2 (human) (UniProt Q9Y2U5)
MATK (human) = MATK (human) (UniProt P42679)
MET (human) = MET (human) (UniProt P08581)
NEK11 (human) = NEK11 (human) (UniProt Q8NG66)
NEK3 (human) = NEK3 (human) (UniProt P51956)
PI4KB (human) = PI4KB (human) (UniProt Q9UBF8)
PIK3C2G (human) = PIK3C2G (human) (UniProt O75747)
PIK3CA (human) = PIK3CA (human) (UniProt P42336)
[2] = system: PIK3CA (human), P42336 [E545A]
[3] = system: PIK3CA (human), P42336 [E545K]
PIK3CG (human) = PIK3CG (human) (UniProt P48736)
PIP5K1C (human) = PIP5K1C (human) (UniProt O60331)
ROCK1 (human) = ROCK1 (human) (UniProt Q13464)
SIK3 (human) = SIK3 (human) (UniProt Q9Y2K2)
SNRK (human) = SNRK (human) (UniProt Q9NRH2)
STK39 (human) = STK39 (human) (UniProt Q9UEW8)
TAOK2 (human) = TAOK2 (human) (UniProt Q9UL54)
TIE1 (human) = TIE1 (human) (UniProt P35590)
TRPM6 (human) = TRPM6 (human) (UniProt Q9BX84)
VRK2 (human) = VRK2 (human) (UniProt Q86Y07)
Sequence of VRK2 (human) (Q86Y07 whole entry, looked up): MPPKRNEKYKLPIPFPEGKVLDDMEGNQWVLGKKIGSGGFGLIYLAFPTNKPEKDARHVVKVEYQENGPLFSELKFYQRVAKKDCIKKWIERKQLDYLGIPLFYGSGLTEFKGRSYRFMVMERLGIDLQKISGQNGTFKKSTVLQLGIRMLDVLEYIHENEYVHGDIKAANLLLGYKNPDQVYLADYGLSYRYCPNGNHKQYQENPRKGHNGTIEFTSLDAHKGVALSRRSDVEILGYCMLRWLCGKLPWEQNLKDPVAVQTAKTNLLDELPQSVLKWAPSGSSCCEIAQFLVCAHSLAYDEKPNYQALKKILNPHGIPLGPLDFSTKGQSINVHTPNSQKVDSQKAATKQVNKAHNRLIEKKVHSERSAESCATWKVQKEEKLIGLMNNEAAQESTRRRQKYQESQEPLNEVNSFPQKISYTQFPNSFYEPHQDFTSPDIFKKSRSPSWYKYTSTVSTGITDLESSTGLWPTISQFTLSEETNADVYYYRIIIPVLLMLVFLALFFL

Sequence of TIE1 (human) (P35590 whole entry, looked up): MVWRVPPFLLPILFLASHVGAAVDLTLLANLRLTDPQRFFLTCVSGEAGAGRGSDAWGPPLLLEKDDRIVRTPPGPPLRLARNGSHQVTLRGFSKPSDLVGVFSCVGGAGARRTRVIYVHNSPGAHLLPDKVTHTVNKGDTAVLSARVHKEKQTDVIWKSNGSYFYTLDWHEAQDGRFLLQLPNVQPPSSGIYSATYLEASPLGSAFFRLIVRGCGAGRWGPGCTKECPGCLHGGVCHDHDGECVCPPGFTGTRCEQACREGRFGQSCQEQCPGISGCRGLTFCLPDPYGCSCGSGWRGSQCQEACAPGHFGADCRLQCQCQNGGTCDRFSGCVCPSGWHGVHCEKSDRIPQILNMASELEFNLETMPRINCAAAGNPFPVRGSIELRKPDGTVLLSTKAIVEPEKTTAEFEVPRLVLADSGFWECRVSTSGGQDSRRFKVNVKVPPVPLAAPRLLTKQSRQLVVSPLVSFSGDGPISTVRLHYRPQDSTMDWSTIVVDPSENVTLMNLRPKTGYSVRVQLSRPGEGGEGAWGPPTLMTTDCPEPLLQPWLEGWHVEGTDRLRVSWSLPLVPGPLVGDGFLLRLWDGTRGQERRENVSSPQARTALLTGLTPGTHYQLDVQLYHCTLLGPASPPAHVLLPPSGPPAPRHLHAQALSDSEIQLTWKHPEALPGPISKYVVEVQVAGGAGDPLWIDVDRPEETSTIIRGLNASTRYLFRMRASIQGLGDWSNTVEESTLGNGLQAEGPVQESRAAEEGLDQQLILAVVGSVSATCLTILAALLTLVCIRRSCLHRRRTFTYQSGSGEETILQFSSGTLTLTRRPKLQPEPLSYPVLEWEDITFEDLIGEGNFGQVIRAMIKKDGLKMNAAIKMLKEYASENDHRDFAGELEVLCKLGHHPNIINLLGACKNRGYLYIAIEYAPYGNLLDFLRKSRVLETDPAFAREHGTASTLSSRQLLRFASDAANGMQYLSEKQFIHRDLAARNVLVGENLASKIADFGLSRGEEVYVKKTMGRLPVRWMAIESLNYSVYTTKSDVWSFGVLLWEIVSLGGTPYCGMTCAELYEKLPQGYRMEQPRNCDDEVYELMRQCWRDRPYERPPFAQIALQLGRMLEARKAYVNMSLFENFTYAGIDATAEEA
Sequence of PIK3CA (human), P42336 [E545K] (P42336 whole entry E545K, looked up): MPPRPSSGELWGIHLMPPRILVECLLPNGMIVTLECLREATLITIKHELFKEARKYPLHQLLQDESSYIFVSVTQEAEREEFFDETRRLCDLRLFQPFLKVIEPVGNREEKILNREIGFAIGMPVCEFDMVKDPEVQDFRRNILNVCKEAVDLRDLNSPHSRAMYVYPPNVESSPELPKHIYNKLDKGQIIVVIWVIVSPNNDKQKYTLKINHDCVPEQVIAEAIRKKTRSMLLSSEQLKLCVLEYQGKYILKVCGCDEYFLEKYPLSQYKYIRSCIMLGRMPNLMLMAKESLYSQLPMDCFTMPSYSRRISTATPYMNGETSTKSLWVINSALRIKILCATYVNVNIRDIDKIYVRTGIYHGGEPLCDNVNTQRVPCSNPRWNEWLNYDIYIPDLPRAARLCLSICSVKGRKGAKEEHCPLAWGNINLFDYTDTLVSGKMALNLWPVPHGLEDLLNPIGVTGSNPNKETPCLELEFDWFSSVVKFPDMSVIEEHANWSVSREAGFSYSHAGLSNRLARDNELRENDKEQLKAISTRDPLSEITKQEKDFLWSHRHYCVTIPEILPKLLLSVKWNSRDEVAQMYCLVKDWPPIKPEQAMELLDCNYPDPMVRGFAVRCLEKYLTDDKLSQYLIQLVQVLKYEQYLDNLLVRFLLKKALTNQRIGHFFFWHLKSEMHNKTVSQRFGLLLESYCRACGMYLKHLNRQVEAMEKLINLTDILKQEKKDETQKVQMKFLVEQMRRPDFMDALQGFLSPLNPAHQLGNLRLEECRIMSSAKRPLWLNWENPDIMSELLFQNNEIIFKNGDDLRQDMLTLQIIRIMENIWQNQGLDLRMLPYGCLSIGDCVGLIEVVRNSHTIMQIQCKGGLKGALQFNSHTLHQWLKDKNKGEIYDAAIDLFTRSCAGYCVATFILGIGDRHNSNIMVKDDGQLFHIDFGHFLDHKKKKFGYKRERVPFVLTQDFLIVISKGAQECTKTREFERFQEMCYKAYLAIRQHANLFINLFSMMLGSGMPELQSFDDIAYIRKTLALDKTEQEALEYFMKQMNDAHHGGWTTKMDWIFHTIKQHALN
Sequence of NEK3 (human) (P51956 whole entry, looked up): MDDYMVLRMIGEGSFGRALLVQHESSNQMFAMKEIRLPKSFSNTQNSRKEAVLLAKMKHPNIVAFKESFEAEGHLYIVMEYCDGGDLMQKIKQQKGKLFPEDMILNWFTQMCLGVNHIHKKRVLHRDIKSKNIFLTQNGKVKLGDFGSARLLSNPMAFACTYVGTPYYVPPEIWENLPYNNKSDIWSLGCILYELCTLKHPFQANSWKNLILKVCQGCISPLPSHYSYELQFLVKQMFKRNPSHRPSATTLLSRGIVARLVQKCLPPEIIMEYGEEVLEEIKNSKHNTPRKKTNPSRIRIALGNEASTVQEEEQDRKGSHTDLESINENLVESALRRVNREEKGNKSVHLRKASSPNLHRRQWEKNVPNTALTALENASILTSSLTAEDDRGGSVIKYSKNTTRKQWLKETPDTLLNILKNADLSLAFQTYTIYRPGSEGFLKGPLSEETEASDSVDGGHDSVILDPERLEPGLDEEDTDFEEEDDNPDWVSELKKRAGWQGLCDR
Sequence of HUNK (human) (P57058 whole entry, looked up): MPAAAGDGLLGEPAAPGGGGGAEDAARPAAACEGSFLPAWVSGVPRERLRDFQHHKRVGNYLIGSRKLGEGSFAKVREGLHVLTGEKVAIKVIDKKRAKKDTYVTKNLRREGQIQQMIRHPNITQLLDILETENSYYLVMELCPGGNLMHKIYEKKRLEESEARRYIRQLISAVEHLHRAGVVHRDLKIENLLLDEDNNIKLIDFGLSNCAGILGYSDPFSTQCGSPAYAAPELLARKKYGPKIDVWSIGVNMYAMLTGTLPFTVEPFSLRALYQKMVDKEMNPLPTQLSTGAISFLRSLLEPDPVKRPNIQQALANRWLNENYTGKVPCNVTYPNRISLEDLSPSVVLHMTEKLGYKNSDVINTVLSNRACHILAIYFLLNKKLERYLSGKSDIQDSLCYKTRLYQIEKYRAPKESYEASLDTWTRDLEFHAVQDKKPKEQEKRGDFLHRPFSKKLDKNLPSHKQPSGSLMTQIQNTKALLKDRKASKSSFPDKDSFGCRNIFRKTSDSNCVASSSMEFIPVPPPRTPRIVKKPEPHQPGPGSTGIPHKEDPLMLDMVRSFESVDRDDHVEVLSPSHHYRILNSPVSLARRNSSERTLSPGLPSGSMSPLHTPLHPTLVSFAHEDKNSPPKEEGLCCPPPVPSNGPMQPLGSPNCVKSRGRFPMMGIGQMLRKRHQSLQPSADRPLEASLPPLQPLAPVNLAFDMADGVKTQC
Sequence of PIK3CA (human) (P42336 whole entry, looked up): as the sequence (P42336 whole entry E545K, looked up) above, with K545E counted along it
Sequence of HIPK4 (human) (Q8NE63 whole entry, looked up): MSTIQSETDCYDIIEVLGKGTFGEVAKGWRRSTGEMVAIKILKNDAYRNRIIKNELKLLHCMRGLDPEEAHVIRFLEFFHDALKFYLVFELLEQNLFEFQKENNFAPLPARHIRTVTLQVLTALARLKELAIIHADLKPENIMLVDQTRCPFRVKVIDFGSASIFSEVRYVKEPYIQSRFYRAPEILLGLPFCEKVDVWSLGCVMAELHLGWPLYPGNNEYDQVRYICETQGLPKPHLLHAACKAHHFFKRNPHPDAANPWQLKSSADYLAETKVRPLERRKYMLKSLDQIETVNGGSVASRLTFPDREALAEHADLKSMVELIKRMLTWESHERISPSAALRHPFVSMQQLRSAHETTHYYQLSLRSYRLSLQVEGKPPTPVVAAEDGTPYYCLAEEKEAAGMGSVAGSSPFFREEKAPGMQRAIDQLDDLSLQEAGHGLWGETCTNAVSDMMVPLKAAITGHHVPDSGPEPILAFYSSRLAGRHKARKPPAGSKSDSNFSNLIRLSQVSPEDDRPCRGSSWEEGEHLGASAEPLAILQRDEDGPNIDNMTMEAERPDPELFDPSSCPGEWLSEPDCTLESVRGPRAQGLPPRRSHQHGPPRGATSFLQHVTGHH
Sequence of CDKL1 (human) (Q00532 whole entry, looked up): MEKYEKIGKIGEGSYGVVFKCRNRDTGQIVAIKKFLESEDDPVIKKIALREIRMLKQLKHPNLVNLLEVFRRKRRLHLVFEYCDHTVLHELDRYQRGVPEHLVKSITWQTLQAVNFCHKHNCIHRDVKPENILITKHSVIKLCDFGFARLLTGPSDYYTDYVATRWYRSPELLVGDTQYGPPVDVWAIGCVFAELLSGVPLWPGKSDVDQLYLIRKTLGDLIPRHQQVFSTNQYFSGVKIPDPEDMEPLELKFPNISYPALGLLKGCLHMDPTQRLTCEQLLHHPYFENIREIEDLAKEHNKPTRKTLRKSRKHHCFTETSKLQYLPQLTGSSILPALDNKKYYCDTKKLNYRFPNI
Sequence of PIK3CA (human), P42336 [E545A] (P42336 whole entry E545A, looked up): as the sequence (P42336 whole entry E545K, looked up) above, with K545A counted along it

| Compound | kinase still bound, per cent of control [1] [%] | kinase still bound, per cent of control (CDK4 CCND3 (human)) [%] | kinase still bound, per cent of control (CDKL1 (human)) [%] | kinase still bound, per cent of control (CSNK1A1 (human)) [%] | kinase still bound, per cent of control (DSTYK (human)) [%] | kinase still bound, per cent of control (EGFR (human)) [%] | kinase still bound, per cent of control (EPHB6 (human)) [%] | kinase still bound, per cent of control (ERBB3 (human)) [%] | kinase still bound, per cent of control (ERN1 (human)) [%] | kinase still bound, per cent of control (GRK1 (human)) [%] | kinase still bound, per cent of control (GRK4 (human)) [%] | kinase still bound, per cent of control (HIPK2 (human)) [%] | kinase still bound, per cent of control (HIPK3 (human)) [%] | kinase still bound, per cent of control (HIPK4 (human)) [%] | kinase still bound, per cent of control (HUNK (human)) [%] | kinase still bound, per cent of control (ICK (human)) [%] | kinase still bound, per cent of control (IRAK1 (human)) [%] | kinase still bound, per cent of control (LRRK2 (human)) [%] | kinase still bound, per cent of control (MAP3K1 (human)) [%] | kinase still bound, per cent of control (MAP3K13 (human)) [%] | further results |
| --- | --- | --- | --- | --- | --- | --- | --- | --- | --- | --- | --- | --- | --- | --- | --- | --- | --- | --- | --- | --- | --- |
| O=C1Nc2ccc(I)cc2/C1=C/c1cc(Br)c(O)c(Br)c1 | 54 | 99 | 84 | 81 | 66 | 56 | 24 | 87 | 57 | 92 | 21 | 7.6 | 8 | 21 | 2.8 | 88 | 100 | 11 | 84 | 100 | kinase still bound, per cent of control (MAP3K2 (human)): 100%; kinase still bound, per cent of control (MATK (human)): 100%; kinase still bound, per cent of control (MET (human)): 100%; kinase still bound, per cent of control (NEK11 (human)): 100%; kinase still bound, per cent of control (NEK3 (human)): 95%; kinase still bound, per cent of control (PI4KB (human)): 0.5%; kinase still bound, per cent of control (PIK3C2G (human)): 44%; kinase still bound, per cent of control (PIK3CA (human)): 85%; kinase still bound, per cent of control [2]: 86%; kinase still bound, per cent of control [3]: 100%; kinase still bound, per cent of control (PIK3CG (human)): 71%; kinase still bound, per cent of control (PIP5K1C (human)): 19%; kinase still bound, per cent of control (ROCK1 (human)): 80%; kinase still bound, per cent of control (SIK3 (human)): 100%; kinase still bound, per cent of control (SNRK (human)): 99%; kinase still bound, per cent of control (STK39 (human)): 100%; kinase still bound, per cent of control (TAOK2 (human)): 71%; kinase still bound, per cent of control (TIE1 (human)): 86%; kinase still bound, per cent of control (TRPM6 (human)): 100%; kinase still bound, per cent of control (VRK2 (human)): 82% |
| C=CC(=O)Nc1cc(NC(=O)c2ccc(C)c(NC(=O)c3ccno3)c2)cc(C(F)(F)F)c1 | 86 | 95 | 100 | 100 | 100 | 79 | 81 | 100 | 90 | 86 | 100 | 86 | 100 | 100 | 100 | 75 | 100 | 89 | 94 | 98 | kinase still bound, per cent of control (MAP3K2 (human)): 100%; kinase still bound, per cent of control (MATK (human)): 100%; kinase still bound, per cent of control (MET (human)): 100%; kinase still bound, per cent of control (NEK11 (human)): 100%; kinase still bound, per cent of control (NEK3 (human)): 88%; kinase still bound, per cent of control (PI4KB (human)): 88%; kinase still bound, per cent of control (PIK3C2G (human)): 100%; kinase still bound, per cent of control (PIK3CA (human)): 76%; kinase still bound, per cent of control [2]: 86%; kinase still bound, per cent of control [3]: 95%; kinase still bound, per cent of control (PIK3CG (human)): 76%; kinase still bound, per cent of control (PIP5K1C (human)): 100%; kinase still bound, per cent of control (ROCK1 (human)): 100%; kinase still bound, per cent of control (SIK3 (human)): 82%; kinase still bound, per cent of control (SNRK (human)): 100%; kinase still bound, per cent of control (STK39 (human)): 86%; kinase still bound, per cent of control (TAOK2 (human)): 87%; kinase still bound, per cent of control (TIE1 (human)): 100%; kinase still bound, per cent of control (TRPM6 (human)): 100%; kinase still bound, per cent of control (VRK2 (human)): 100% |
| C=CC(=O)Nc1cccc(Nc2nc(N[C@H]3CC[C@H](N(C)C)CC3)nc3c2ncn3C(C)C)c1 | 70 | 23 | 100 | 0.65 | 86 | 100 | 74 | 94 | 96 | 47 | 43 | 17 | 26 | 63 | 85 | 100 | 1.8 | 61 | 100 | 79 | kinase still bound, per cent of control (MAP3K2 (human)): 0.2%; kinase still bound, per cent of control (MATK (human)): 40%; kinase still bound, per cent of control (MET (human)): 100%; kinase still bound, per cent of control (NEK11 (human)): 54%; kinase still bound, per cent of control (NEK3 (human)): 60%; kinase still bound, per cent of control (PI4KB (human)): 100%; kinase still bound, per cent of control (PIK3C2G (human)): 100%; kinase still bound, per cent of control (PIK3CA (human)): 100%; kinase still bound, per cent of control [2]: 100%; kinase still bound, per cent of control [3]: 100%; kinase still bound, per cent of control (PIK3CG (human)): 100%; kinase still bound, per cent of control (PIP5K1C (human)): 100%; kinase still bound, per cent of control (ROCK1 (human)): 16%; kinase still bound, per cent of control (SIK3 (human)): 92%; kinase still bound, per cent of control (SNRK (human)): 68%; kinase still bound, per cent of control (STK39 (human)): 51%; kinase still bound, per cent of control (TAOK2 (human)): 66%; kinase still bound, per cent of control (TIE1 (human)): 86%; kinase still bound, per cent of control (TRPM6 (human)): 66%; kinase still bound, per cent of control (VRK2 (human)): 11% |
